IC50 data for five compounds are collected here from BindingDB's records for doi:10.7270/Q2QN656Q (The Scripps Research Institute Molecular Screening Center, 2010).

Values joined by “and” are separate entries in the source; they are usually repeats but may differ in a detail not shown here. Identical values can stand only once.

The target in this assay is Serine/threonine-protein phosphatase PP1-alpha catalytic subunit (Homo sapiens, UniProt P62136). The experiment in a line: inhibition of protein phosphatase 1 activity – biochemical, fluorescence, dose response (AID 2403).
Chain of Serine/threonine-protein phosphatase PP1-alpha catalytic subunit (P62136 whole entry): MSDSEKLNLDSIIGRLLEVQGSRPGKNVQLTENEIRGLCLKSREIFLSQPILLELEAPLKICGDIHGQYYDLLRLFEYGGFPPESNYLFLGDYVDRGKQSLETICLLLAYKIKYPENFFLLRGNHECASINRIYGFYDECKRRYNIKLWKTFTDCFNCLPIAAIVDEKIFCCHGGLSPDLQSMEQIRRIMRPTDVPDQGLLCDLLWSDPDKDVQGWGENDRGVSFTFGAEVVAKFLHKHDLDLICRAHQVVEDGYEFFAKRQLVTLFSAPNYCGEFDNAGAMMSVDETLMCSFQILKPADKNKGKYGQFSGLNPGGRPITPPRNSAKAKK

A word on the IC50: it is the concentration at which inhibition is half-maximal. The low end stands for greater potency in that assay, the high end for weaker potency in that assay. In turn, `CC1(C)Cc2c(nn(-c3ccccc3)c(=N)c2C#N)CO1` yielded a 50% inhibitory concentration (IC50) of 55.8 µM.
With `O=C1OC(=O)[C@H]2[C@@H]1[C@@H]1CC[C@H]2O1` [(1R,2S,6R,7S)-4,10-Dioxa-tricyclo[5.2.1.0*2,6*]decane-3,5-dione] the figure was 4.12 µM and 2.83 µM; with `COc1ccc(CN=Nc2cc(C)nc(-n3nc(C)cc3C)n2)c(OC)c1` [MLS000589396], 6.68 µM.
The value for `CCOC(=O)c1sc(N2C(=O)C(=O)C(C(=O)c3ccco3)C2c2cccc([N+](=O)[O-])c2)nc1C` (stereo not given) [MLS001082998] was 11.8 µM; that for `COc1ccc(CN=Nc2cc(C)nc(-n3nc(C)cc3C)n2)cc1` [SMR000212741] was 5.81 µM.
